Results reported in ChEMBL document CHEMBL1687921, “Natural product-based phenols as novel probes for mycobacterial and fungal carbonic anhydrases” (J Med Chem, 2011).

Key:
Carbonic anhydrase 2 [1] = target: T1, Carbonic anhydrase 2 (Cryptococcus neoformans, UniProt Q3I4V7)
T1 sequence (Q3I4V7 whole entry): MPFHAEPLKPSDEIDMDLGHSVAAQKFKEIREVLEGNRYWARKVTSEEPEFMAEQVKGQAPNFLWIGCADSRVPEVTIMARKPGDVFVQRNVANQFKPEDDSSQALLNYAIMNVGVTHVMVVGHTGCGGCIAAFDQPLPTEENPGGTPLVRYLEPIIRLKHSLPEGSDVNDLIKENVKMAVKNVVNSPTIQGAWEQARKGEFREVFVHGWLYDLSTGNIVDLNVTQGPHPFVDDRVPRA
Description: Inhibition of Cryptococcus neoformans recombinant Can2 beta-carbonic anhydrase after 15 mins by stopped flow CO2 hydration assay

[2] = target: T2, Beta-carbonic anhydrase 1 (Mycobacterium tuberculosis, UniProt P9WPJ7)
T2 sequence (P9WPJ7 whole entry): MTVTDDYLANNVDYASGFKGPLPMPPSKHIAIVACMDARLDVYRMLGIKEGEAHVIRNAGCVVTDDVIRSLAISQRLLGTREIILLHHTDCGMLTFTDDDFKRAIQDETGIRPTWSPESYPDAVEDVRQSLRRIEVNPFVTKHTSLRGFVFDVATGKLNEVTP
Description: Inhibition of Mycobacterium tuberculosis recombinant Rv1284 beta-carbonic anhydrase after 15 mins by stopped flow CO2 hydration assay

[3] = target: T3, PROBABLE TRANSMEMBRANE CARBONIC ANHYDRASE (CARBONATE DEHYDRATASE) (CARBONIC DEHYDRATASE) (Mycobacterium tuberculosis, UniProt P96878)
T3 sequence (P96878 whole entry): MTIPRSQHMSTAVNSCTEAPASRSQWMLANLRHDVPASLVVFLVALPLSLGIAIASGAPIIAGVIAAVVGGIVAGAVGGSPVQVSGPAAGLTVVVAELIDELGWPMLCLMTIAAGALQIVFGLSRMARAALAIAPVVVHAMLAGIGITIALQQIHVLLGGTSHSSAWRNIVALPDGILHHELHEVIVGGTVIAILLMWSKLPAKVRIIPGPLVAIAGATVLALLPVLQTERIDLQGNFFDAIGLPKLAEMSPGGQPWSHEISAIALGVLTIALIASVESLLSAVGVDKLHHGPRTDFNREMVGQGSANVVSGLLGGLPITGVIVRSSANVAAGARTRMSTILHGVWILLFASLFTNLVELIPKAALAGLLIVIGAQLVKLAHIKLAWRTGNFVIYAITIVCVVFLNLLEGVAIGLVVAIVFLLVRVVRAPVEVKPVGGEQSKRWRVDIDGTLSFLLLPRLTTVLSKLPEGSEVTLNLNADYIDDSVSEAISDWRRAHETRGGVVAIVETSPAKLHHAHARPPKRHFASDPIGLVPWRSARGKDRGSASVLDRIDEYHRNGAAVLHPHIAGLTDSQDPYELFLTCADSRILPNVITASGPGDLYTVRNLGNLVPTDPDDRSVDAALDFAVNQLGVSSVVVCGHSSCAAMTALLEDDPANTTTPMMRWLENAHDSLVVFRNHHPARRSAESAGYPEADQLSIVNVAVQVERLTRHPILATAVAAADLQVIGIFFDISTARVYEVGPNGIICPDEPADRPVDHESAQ
Description: Inhibition of Mycobacterium tuberculosis recombinant Rv3273 beta-carbonic anhydrase after 15 mins by stopped flow CO2 hydration assay

Carbonic anhydrase = target: T4, Carbonic anhydrase (Candida albicans (strain SC5314 / ATCC MYA-2876) (Yeast), UniProt Q5AJ71)
T4 sequence (Q5AJ71 whole entry): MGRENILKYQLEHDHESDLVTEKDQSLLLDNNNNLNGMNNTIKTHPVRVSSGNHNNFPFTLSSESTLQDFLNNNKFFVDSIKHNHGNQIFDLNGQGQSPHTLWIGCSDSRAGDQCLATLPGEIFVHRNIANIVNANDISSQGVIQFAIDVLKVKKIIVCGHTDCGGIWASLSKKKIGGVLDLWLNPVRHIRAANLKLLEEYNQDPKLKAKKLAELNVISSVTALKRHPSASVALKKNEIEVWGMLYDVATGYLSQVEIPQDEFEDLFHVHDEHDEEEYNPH
Description: Inhibition of Candida albicans recombinant Nce103 beta-carbonic anhydrase after 15 mins by stopped flow CO2 hydration assay

Carbonic anhydrase 1 = Carbonic anhydrase 1 (Homo sapiens, UniProt P00915)
Description: Inhibition of human recombinant alpha-carbonic anhydrase 1 after 15 mins by stopped flow CO2 hydration assay

Carbonic anhydrase 2 [4] = target: Carbonic anhydrase 2 (Homo sapiens, UniProt P00918)
Description: Inhibition of human recombinant alpha-carbonic anhydrase 2 after 15 mins by stopped flow CO2 hydration assay

[5] = target: T5, Beta-carbonic anhydrase 1 (Mycobacterium tuberculosis) (UniProt P9WPJ7)
T5 sequence (whole entry): T2 sequence (P9WPJ7 whole entry)

Sequence of Carbonic anhydrase 1 (P00915 whole entry): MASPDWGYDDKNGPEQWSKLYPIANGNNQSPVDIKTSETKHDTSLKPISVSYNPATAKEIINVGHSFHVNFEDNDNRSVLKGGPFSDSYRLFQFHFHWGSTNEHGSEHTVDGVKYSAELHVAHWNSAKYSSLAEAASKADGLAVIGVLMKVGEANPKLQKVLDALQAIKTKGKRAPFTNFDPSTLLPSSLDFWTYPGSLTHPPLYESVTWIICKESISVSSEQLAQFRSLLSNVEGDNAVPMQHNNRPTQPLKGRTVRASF

Row | SMILES | Ki (Carbonic anhydrase 2 [1]) [nM] | Ki [2] [nM] | Ki [3] [nM] | Ki (Carbonic anhydrase) [nM] | Ki (Carbonic anhydrase 1) [nM] | Ki (Carbonic anhydrase 2 [4]) [nM] | fold change (FC) [5]
1 | CC(C)(C)NC(=O)Cc1ccc(O)c(Cl)c1 | 910 | 12300 | 10200 | 960 |  |  | 
2 | COc1cccc(CCNC(=O)Cc2ccc(O)c(Cl)c2)c1 | 940 | 1270 | 910 | 720 |  |  | 
3 | COc1cc(C)cc2oc3ccc(O)c(C(=O)O)c3c(=O)c12 | 1120 | 10500 | 11400 | 1060 |  |  | 
4 | NC(=O)Cc1ccc(O)c(Cl)c1 | 850 | 10500 | 11200 | 1000 |  |  | 
5 | Nc1ccc(S(N)(=O)=O)cc1 [SULFANILAMIDE] |  |  | 7110 |  |  |  | 
6 | NS(=O)(=O)Cc1noc2ccccc12 [ZONISAMIDE] |  | 287000 |  |  |  |  | 
7 | COc1cc([C@@H]2[C@@H](C)[C@@H](C)[C@@H]2c2ccc(O)c(OC)c2)ccc1O [ENDIANDRIN B] | 950 | 800 | 890 | 700 | 354000 | 12100 | 
8 | O=C(O)Cc1ccc(O)c(Cl)c1 | 1120 | 10300 | 10800 | 1080 |  |  | 
9 | COc1cc([C@@H]2[C@@H](C)[C@H](C)[C@H]2c2ccc(O)c(OC)c2)ccc1O [ENDIANDRIN A] | 770 | 820 | 8920 | 730 | 368000 | 11700 | 
10 | COC(=O)/C=C/C(=O)N[C@H](Cc1ccc(O)c(Cl)c1)C(=O)O [(-)-XYLARIAMIDE A] | 1150 | 840 | 11300 | 1030 |  |  | 
11 | Oc1ccccc1 [PHENOL] | 25900 | 64000 | 79000 | 17300 |  |  | 
12 | OCCc1ccc(O)cc1 [TYROSOL] | 1080 | 850 | 12100 | 1100 | 430000 | 8700 | 75
13 | NS(=O)(=O)c1ccc(CCNC(=O)Cc2ccc(O)c(Cl)c2)cc1 | 740 | 1160 | 850 | 790 |  |  | 
